These results are taken from paper PMC3948353 (Chemistry & biology, 2013).

Test [1] addresses T1, arylacetamide deacetylase-like 1 (AADACL1) (Homo sapiens, UniProt Q6PIU2).
T1 sequence (Q6PIU2 1-408): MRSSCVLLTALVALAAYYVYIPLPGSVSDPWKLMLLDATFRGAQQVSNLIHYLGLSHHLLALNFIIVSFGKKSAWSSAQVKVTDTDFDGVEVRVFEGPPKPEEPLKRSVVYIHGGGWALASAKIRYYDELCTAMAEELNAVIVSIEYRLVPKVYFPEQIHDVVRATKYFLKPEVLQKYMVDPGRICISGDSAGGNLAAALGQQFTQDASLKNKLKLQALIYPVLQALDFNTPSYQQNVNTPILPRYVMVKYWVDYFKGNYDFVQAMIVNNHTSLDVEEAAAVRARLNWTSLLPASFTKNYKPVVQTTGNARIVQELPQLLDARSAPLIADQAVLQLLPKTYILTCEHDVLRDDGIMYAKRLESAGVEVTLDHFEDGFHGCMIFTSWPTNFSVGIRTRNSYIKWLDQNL
Briefly: hydrolysis of exogenous HAG in human platelet lysate, blocked by JW480. Format: cell-based.

In test [2] the target is T1, arylacetamide deacetylase-like 1 (AADACL1). Briefly: HAG hydrolysis activity in lysates of JW480-treated human platelets. It counts as cell-based.

For the compound `CCCCCCCCCCCCCCCCOC[C@H](CO)OC(C)=O` [HAG, 1-O-hexadecyl-2-O-acetyl-sn-glycerol], the “hydrolysis of exogenous HAG in human platelet lysate, blocked by JW480” value in test [1] is reported as “AADACL1 also hydrolyzes HAG to its corresponding monoalkylglycerol ether (C16 MAGE) in human platelets”.

As to `CC(C)c1ccccc1OC(=O)NCCc1ccc2ccccc2c1` [JW480], the “% inhibition at 2 μM” value in test [2] amounted to 90 ± 0.56% inhibition at 2.
